From ChEMBL document CHEMBL1136598, “Design, synthesis, and structure-activity relationships of unsubstituted piperazinone-based transition state factor Xa inhibitors” (Bioorg Med Chem Lett, 2003)
Blank lines part the entries; values can stand above or below the molecule they belong to. Activity calls are given as the source filed them. The calls are words filed in the database; no cut-off is given here.

Tests used:
[1] = Inhibitory activity against Kallikrein
[2] = organism: Oryctolagus cuniculus; assay: Plasma concentration required to inhibit thrombosis formation in rabbit; format: functional, organism-based
[3] = In vitro anticoagulant activity was measured by activated partial thromboplastin time (APTT) assay; format: functional
[4] = organism: Oryctolagus cuniculus; assay: Inhibition thrombosis formation in rabbit; format: functional
[5] = In vitro anticoagulant activity was measured by plasma based on thrombin generation (TG) assay; format: functional
[6] = In vitro anticoagulant activity was measured by prothrombin time (PT) assay; format: functional
[7] = target: T1, Coagulation factor X (Homo sapiens, UniProt P00742); assay: In vitro binding affinity towards factor Xa; Not active
T1 sequence (P00742 41-179 limits assumed): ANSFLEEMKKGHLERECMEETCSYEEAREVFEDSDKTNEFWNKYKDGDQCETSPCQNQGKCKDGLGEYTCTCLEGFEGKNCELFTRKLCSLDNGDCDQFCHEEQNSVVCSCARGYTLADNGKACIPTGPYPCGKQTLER
T1 sequence (P00742 235-488 limits assumed): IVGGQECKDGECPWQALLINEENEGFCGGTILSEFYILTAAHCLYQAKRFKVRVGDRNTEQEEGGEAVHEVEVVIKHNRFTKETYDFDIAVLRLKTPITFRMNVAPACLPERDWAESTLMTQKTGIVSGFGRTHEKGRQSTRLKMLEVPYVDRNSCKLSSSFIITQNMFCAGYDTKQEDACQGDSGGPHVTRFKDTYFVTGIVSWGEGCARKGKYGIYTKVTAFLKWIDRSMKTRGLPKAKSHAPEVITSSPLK

[8] = target: Prothrombin (Homo sapiens, UniProt P00734); assay: In vitro inhibitory activity against serine protease thrombin
[9] = target: T1, Coagulation factor X; assay: In vitro inhibitory activity against factor Xa
[10] = target: Plasminogen (Homo sapiens, UniProt P00747); assay: Inhibitory activity against Plasmin
Sequence of Plasminogen (P00747 97-580 limits assumed): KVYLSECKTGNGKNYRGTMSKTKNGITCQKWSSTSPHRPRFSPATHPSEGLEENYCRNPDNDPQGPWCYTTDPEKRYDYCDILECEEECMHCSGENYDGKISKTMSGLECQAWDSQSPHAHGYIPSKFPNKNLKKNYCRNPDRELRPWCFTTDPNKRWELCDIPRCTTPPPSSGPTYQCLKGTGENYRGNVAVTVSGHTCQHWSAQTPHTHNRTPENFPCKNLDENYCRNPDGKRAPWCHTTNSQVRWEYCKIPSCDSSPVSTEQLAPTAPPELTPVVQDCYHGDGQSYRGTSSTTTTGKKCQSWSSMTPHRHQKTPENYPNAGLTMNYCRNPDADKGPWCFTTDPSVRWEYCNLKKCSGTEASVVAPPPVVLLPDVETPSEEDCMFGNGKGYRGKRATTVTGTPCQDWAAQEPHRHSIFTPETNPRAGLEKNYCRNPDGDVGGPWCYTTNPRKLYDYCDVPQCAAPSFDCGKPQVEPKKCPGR
Sequence of Plasminogen (P00747 581-810 limits assumed): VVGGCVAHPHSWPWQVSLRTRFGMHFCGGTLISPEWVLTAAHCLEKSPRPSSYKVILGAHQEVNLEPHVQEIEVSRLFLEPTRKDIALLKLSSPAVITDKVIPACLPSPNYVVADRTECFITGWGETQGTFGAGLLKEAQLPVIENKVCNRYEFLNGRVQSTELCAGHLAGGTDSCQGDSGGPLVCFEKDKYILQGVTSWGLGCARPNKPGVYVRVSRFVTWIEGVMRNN

[11] = target: T1, Coagulation factor X; assay: (§1) In vitro binding affinity towards factor Xa
[12] = target: Tissue-type plasminogen activator (Homo sapiens, UniProt P00750); assay: Inhibitory activity against tissue plasminogen activator (tissue plasminogen activator)
Sequence of Tissue-type plasminogen activator (P00750 whole entry): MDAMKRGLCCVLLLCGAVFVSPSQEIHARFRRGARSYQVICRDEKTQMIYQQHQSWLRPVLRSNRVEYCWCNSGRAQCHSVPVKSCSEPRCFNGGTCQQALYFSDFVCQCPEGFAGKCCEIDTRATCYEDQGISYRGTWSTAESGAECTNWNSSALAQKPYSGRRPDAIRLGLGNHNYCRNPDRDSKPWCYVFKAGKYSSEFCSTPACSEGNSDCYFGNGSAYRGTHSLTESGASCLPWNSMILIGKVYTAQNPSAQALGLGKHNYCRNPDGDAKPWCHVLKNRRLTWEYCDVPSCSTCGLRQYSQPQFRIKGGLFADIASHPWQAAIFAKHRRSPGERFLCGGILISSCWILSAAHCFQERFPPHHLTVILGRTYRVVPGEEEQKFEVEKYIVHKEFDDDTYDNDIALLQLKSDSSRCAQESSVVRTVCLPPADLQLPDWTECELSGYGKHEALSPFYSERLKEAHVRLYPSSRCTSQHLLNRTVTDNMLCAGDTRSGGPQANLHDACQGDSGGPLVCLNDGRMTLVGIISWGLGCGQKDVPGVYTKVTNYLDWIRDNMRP

[13] = test system: Oryctolagus cuniculus; assay: In vivo inhibition thrombosis formation in rabbit; format: functional
[14] = target: T1, Coagulation factor X; assay: as §1; remark: listed apart in the source
[15] = target: Serine protease 1 (Homo sapiens, UniProt P07477); assay: Inhibitory activity against Trypsin
Sequence of Serine protease 1 (P07477 whole entry): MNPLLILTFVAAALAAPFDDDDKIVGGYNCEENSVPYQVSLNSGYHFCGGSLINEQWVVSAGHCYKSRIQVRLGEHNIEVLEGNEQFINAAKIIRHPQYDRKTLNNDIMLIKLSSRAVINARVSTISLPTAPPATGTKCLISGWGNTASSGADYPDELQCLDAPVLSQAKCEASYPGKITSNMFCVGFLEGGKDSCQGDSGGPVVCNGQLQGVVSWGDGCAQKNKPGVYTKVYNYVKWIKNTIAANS

[16] = In vivo half life period after intravenous administration in rat; format: ADME, organism-based
[17] = target: Vitamin K-dependent protein C (Homo sapiens, UniProt P04070); assay: Inhibitory activity against activated protein C (aPC)
Sequence of Vitamin K-dependent protein C (P04070 43-197 limits assumed): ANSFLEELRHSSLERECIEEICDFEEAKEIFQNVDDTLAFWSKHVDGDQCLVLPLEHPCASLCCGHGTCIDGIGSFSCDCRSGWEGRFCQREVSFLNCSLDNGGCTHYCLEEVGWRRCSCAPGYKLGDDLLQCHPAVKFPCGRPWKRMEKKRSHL
Sequence of Vitamin K-dependent protein C (P04070 212-461 limits assumed): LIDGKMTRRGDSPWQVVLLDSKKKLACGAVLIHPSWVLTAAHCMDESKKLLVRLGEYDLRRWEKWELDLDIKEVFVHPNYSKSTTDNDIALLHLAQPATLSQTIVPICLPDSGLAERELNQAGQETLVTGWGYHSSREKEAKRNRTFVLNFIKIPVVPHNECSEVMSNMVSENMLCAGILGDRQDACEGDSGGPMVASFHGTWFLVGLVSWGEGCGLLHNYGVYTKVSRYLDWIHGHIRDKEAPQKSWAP

[18] = test system: Oryctolagus cuniculus; assay: In vivo plasma concentration required to inhibit thrombosis formation in rabbit; format: functional, organism-based
[19] = In vitro anticoagulant activity was measured by plasma based thrombin generation (TG) assay; format: functional
[20] = test system: Oryctolagus cuniculus; assay: In vivo inhibition of thrombosis formation in rabbit; format: functional
[21] = Half life period after intravenous administration in rat; format: ADME, organism-based; conditions: in vivo

Structure (SMILES): Cc1c(S(=O)(=O)N2CCN(CC(=O)NC(CCCN=C(N)N)C(=O)c3nccs3)C(=O)C2)sc2ccc(Cl)cc12 (centres undefined)
IC50 [1]: 9.4 nM | Plasma concentration [2]: 1.6 µM | 2x APTT [3]: 15.5 µM | Inhibition [4]: 0% | 2x TG [5]: 5.46 µM | 2x PT [6]: 14.5 µM | k_off [7]: inactive | k_on [7]: inactive

Structure (SMILES): CC(=O)Nc1ccc(S(=O)(=O)N2CCN(CC(=O)NC(CCCNC(=N)N)C(=O)c3nccs3)C(=O)C2)cc1 (centres undefined)
IC50 [8]: 5000 nM | IC50 [9]: 116 nM

Structure (SMILES): N=C(N)NCCC[C@@H](NC(=O)CN1CCN(C(=O)Cc2ccccc2)CC1=O)C(=O)c1nccs1
IC50 [8]: 2000 nM | IC50 [9]: 21 nM

Structure (SMILES): N=C(N)NCCCC(NC(=O)CN1CCN(S(=O)(=O)c2ccc(-c3ccccn3)s2)CC1=O)C(=O)c1nccs1 (centres undefined)
IC50 [8]: 4000 nM | IC50 [9]: 4 nM

Structure (SMILES): N=C(N)NCCC[C@@H](NC(=O)CN1CCCC(CCC2CCNCC2)C1=O)C(=O)c1nccs1 (some centres undefined)
IC50 [8]: 12000 nM | IC50 [9]: 65 nM

Structure (SMILES): COc1ccc(S(=O)(=O)N2CCN(CC(=O)NC(CCCNC(=N)N)C(=O)c3nccs3)C(=O)C2)cc1 (centres undefined)
IC50 [8]: 792 nM | IC50 [9]: 0.89 nM

Structure (SMILES): N=C(N)NCCC[C@@H](NC(=O)CN1CCN(Cc2ccccc2)CC1=O)C(=O)c1nccs1
IC50 [8]: 14000 nM | IC50 [9]: 771 nM

Structure (SMILES): N=C(N)NCCC[C@@H](NC(=O)CN1CCN(S(=O)(=O)Cc2ccccc2)CC1)C(=O)c1nccs1
IC50 [8]: > 500000 nM | IC50 [9]: 24000 nM

Structure (SMILES): Cc1nsc(C)c1S(=O)(=O)N1CCN(CC(=O)NC(CCCNC(=N)N)C(=O)c2nccs2)C(=O)C1 (centres undefined)
IC50 [8]: 669 nM | IC50 [9]: 69 nM

Structure (SMILES): N=C(N)NCCC[C@@H](NC(=O)CN1CCC[C@H](NS(=O)(=O)Cc2ccccc2)C1=O)C(=O)c1nccs1
IC50 [8]: 138 nM | IC50 [9]: 29 nM

Structure (SMILES): N=C(N)NCCCC(NC(=O)CN1CCN(S(=O)(=O)c2cccc3c(Cl)cccc23)CC1=O)C(=O)c1nccs1 (centres undefined)
IC50 [8]: 185 nM | IC50 [9]: 0.62 nM

Structure (SMILES): N=C(N)NCCC[C@@H](NC(=O)CN1CCNCC1=O)C(=O)c1nccs1
IC50 [8]: 220000 nM | IC50 [9]: 2000 nM

Structure (SMILES): CS(=O)(=O)c1ccc(S(=O)(=O)N2CCN(CC(=O)NC(CCCN=C(N)N)C(=O)c3nccs3)C(=O)C2)cc1 (centres undefined)
IC50 [8]: 4000 nM | IC50 [9]: 85 nM

Structure (SMILES): N=C(N)NCCC[C@@H](NC(=O)CN1CCN(S(=O)(=O)c2ccc(Cl)cc2)CC1=O)C(=O)c1nccs1
IC50 [10]: 10700 nM | k off [11]: 0.19 s⁻¹ | k on [11]: 3.4e+06 M⁻¹ s⁻¹ | IC50 [8]: 1000 nM | IC50 [12]: 1880 nM | IC50 [1]: 406 nM | Inhibition [13]: 90% | IC50 [15]: 10.8 nM | half-life [16]: 22 min | 2x APTT [3]: 4.2 µM | IC50 [17]: > 180000 nM | 2x TG [5]: 0.52 µM | Plasma concentration [18]: 0.5 µM | 2x PT [6]: 11.2 µM

Structure (SMILES): N=C(N)NCCC[C@@H](NC(=O)Cn1cccc(NS(=O)(=O)Cc2ccccc2)c1=O)C(=O)c1nccs1
IC50 [8]: 8 nM

Structure (SMILES): N=C(N)NCCC[C@@H](NC(=O)CN1CCN(C(=O)c2ccccc2)CC1=O)C(=O)c1nccs1
IC50 [8]: 7000 nM | IC50 [9]: 320 nM

The remaining molecules from weak to strong by IC50 [8], led by results:

IC50 [10]: 6960 nM | k off [11]: 0.132 s⁻¹ | k on [11]: 6.3e+06 M⁻¹ s⁻¹ | IC50 [8]: 6000 nM | IC50 [9]: 8 nM | IC50 [12]: 1850 nM | IC50 [1]: 390 nM | Ki [14]: 2.7 nM | IC50 [15]: 39.1 nM | half-life [16]: 15 min | IC50 [17]: > 180000 nM
Structure (SMILES): N=C(N)NCCCC(NC(=O)CN1CCN(S(=O)(=O)c2ccc3ccccc3c2)CC1=O)C(=O)c1nccs1 (centres undefined)
Inhibition [13]: 0% | 2x APTT [3]: 13.5 µM | 2x TG [5]: inactive | Plasma concentration [18]: 0.8 µM | 2x PT [6]: 14.5 µM

IC50 [8]: 5000 nM | IC50 [9]: 118 nM
Structure (SMILES): N=C(N)NCCC[C@@H](NC(=O)CN1CCN(C(=O)c2ccc(Cl)cc2)CC1=O)C(=O)c1nccs1

IC50 [8]: 4000 nM | IC50 [9]: 38 nM
Structure (SMILES): N#Cc1c(Cl)cccc1Oc1ccc(S(=O)(=O)N2CCN(CC(=O)NC(CCCNC(=N)N)C(=O)c3nccs3)C(=O)C2)cc1 (centres undefined)

IC50 [8]: 3000 nM | IC50 [9]: 6 nM
Structure (SMILES): N=C(N)NCCCC(NC(=O)CN1CCN(S(=O)(=O)c2ccc([N+](=O)[O-])cc2)CC1=O)C(=O)c1nccs1 (centres undefined)

IC50 [10]: 1880 nM | IC50 [8]: 2000 nM | IC50 [9]: 0.79 nM | IC50 [12]: 740 nM | IC50 [1]: 34 nM | Ki [14]: 1.3 nM | IC50 [15]: 20.5 nM | IC50 [17]: 170000 nM | half-life [21]: 51 min | k_off [7]: inactive | k_on [7]: inactive
Structure (SMILES): N=C(N)NCCCC(NC(=O)CN1CCN(S(=O)(=O)c2ccc3c(Cl)cccc3c2)CC1=O)C(=O)c1nccs1 (centres undefined)
Plasma concentration [2]: 0.2 µM | 2x APTT [3]: 12.5 µM | Inhibition [4]: 0% | 2x TG [5]: inactive | 2x PT [6]: 12.5 µM

IC50 [10]: 10 nM | k off [11]: 0.107 s⁻¹ | k on [11]: 2.9e+06 M⁻¹ s⁻¹ | IC50 [8]: 569 nM | IC50 [9]: 2 nM | IC50 [12]: 150 nM | IC50 [1]: 240 nM | Ki [14]: 4.4 nM | IC50 [15]: 2 nM | half-life [16]: 29 min | IC50 [17]: > 180000 nM
Structure (SMILES): N=C(N)NCCCC(NC(=O)CN1CCN(S(=O)(=O)c2cccc3cccnc23)CC1=O)C(=O)c1nccs1 (centres undefined)
Inhibition [13]: 0% | 2x APTT [3]: 2 µM | 2x TG [5]: 2.5 µM | Plasma concentration [18]: 0.4 µM | 2x PT [6]: 10.4 µM

IC50 [10]: 12100 nM | k off [11]: 0.013 s⁻¹ | k on [11]: 2.3e+06 M⁻¹ s⁻¹ | IC50 [8]: 390 nM | IC50 [9]: 4 nM | IC50 [12]: 4010 nM | IC50 [1]: 677 nM | Ki [14]: 1.4 nM | IC50 [15]: 33 nM | half-life [16]: 10 min | IC50 [17]: > 180000 nM
Structure (SMILES): N=C(N)NCCC[C@@H](NC(=O)CN1CCN(S(=O)(=O)Cc2ccccc2)CC1=O)C(=O)c1nccs1
2x TG [19]: inactive | Inhibition [20]: 35% | 2x APTT [3]: 2.8 µM | Plasma concentration [18]: 0.4 µM | 2x PT [6]: 11.7 µM
